Experimental findings from US10993957B2 (NuCana plc, priority 2011, dated 2021) are described below.

The subject of one series is L1210/TK^−. As to the kind of experiment: Cytostatic assay, thymidine kinase-deficient L1210/TK^− cells. Format: cell-based, murine. To be noted: Mus musculus; for IC50: L1210.
In another series the test system is HeLa. The series can be described thus: Cytostatic assay, HeLa cells. Format: cell-based. To be noted: Homo sapiens, HeLa; for CC50: Table 1, read-out: CC50 HeLa; for IC50: Table 6, read-out: IC50 HeLa. From the text:
(§1) The cell lines employed were L1210/0 (a leukemia cell line), FM3A/0 (a breast cancer cell line), Cem/0 (an acute lymphoblastic leukemia cell line) and HeLa (a cervical cell line).

Another series has as its system L1210.Hyor. The series can be described thus: Cytostatic assay, Mycoplasma hyorhinis-infected L1210 cells. As to conditions: for % Retention: CC50 L1210 × 100 ÷ CC50 L1210/Hyor; for CC50 / IC50: Mus musculus; for CC50: L1210, read-out: CC50 L1210/Hyor. In short, it runs like this: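 Proliferation read by Coulter counting after 48 h exposure of compound-treated L1210 cells carrying M. hyorhinis infection (60,000 cells/well, DMEM with 10% FBS, 37 °C). Values also given as percent activity retained in infected cells.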

The subject of another series is FM3A/0. As to the kind of experiment: Cytostatic assay, FM3A/0 cells. As to conditions: Mus musculus, FM3A/0; Table 1; read-out: CC50 FM3A/0. Format: cell-based. On the procedure:
The samples were assayed for biological activity versus a range of tumour cell lines with data recorded in Table 1 below. […] The cell lines employed were L1210/0 (a leukemia cell line), FM3A/0 (a breast cancer cell line), Cem/0 (an acute lymphoblastic leukemia cell line) and HeLa (a cervical cell line).

The target in series [1] is thymidylate synthase (TS) (Mus musculus, UniProt P07607). As to the kind of experiment: TS activity in intact L1210/TK^− cells (tritium release). In kind it is cell-based, murine. As to conditions: tritium release from [5-3H]dCyd, 4 hours preincubation; read-out: IC50 against TS, L1210/TK^−. On the procedure: The activity of TS in intact L1210/0 and L1210/TK^− cells was measured by evaluation of tritium release from [5-^3H]dUMP (formed in the cells from [5-^3H]dUrd or [5-^3H]dCyd) in the reaction catalysed by TS. This method has been described in detail by Balzarini & De Clercq (1984). […] After 30 min, 2 h and 4 h preincubation of the cells with the compounds at 37° C., 1 μCi of [5-^3H]dUrd or [5-^3H]dCyd was added to the cell cultures. After 30 min incubation, 100 μL of the cell suspensions were withdrawn and added to a cold suspension of 500 μL activated charcoal (VWR, Haasrode, Belgium) (100 mg/ml in TCA 5%). After 10 min, the suspension was centrifuged at 13,000 rpm for 10 min, after which the radioactivity in 400 μL supernatant was counted in a liquid sinctillator using OptiPhase HiSafe (Perkin Elmer, Waldham, Mass.).

The subject of the next series is FM3A/TK^−. As to the kind of experiment: Cytostatic assay, FM3A/TK^− cells. As to conditions: Mus musculus, Table 1, read-out: CC50 FM3A/TK^−. Format: cell-based.
The target in the next series is E. coli TP (Escherichia coli, UniProt P07650). As to the kind of experiment: Phosphorolysis by E. coli TP, HPLC. As to conditions: 100 μM compound, room temperature, 0-40 min. How it is done: Reaction mixtures containing 100 μM test compound and recombinant TP or UP (human TP: 8.6 ng/μL; E. coli TP: 3.0 ng/μL; human UP: 4 ng/mL) in a total volume of 500 μL reaction buffer (10 mM TrisHCl; 300 μM NaCl; 1 mM EDTA; 2 mM KH2PO4/K2HPO4) were incubated at room temperature. At different time points (i.e. 0, 20, 40 min) 100 μL aliquots of the reaction mixtures were withdrawn and heated at 95° C. for 3 min to inactivate the enzyme. The resulting reaction products were separated on a reverse-phase RP-8 column (Merck, Darmstadt, Germany) and quantified by HPLC analysis (Alliance 2690, Waters, Milford, Mass.). […] UV-based detection was performed at 267 nm. The separation of Urd from uracil was performed by a linear gradient from 100% separation buffer (see above) to 60% separation buffer+40% acetonitrile (3 min 100% separation buffer; 6 min linear gradient of 100% separation buffer to 60% separation buffer+40% acetonitrile; 6 min 60% separation buffer+40% acetonitrile, followed by equilibration at 100% separation buffer). UV-based detection was performed at 258 nm.

In another series the test system is Cem/hEnt-0. As to the kind of experiment: Cytostatic assay, CEM cells lacking the hEnt1 transporter. In kind it is cell-based. As to conditions: Homo sapiens, CCRF-CEM, read-out: IC50 Cem/hEnt-0. From the text: (§2) Data are mean (±SD) of at least two to four independent experiments. Table 8 identifies the phosphoramidate motif of compounds embodying the present invention, as discussed above with respect to Table 6, but with “Naph” standing for 1-naphthyl.

The target of series [2] is Thymidine Phosphorylase purified from Escherichia coli (Escherichia coli, UniProt P07650). As to the kind of experiment: Phosphorylase assay by in situ 19F NMR.
Protocol: Two potassium phosphate buffers at pH=7.4, 200 nM solution and 300 nM solution respectively, were used as phosphate donor. Units of enzyme were defined as the amount of enzyme required to hydrolyse about 0.25 mg of inosine per min used as standard. Assays were conducted for 30 minutes.
Another series concerns Cem/0. As to the kind of experiment: Cytostatic assay, CEM/0 cells. In kind it is cell-based, human. To be noted: Homo sapiens, CCRF-CEM; for CC50: Table 1, read-out: CC50 Cem/0.
Text: as §1

The subject of the next series is U87. As to the kind of experiment: Cytostatic assay, U87 cells. Format: cell-based. To be noted: Homo sapiens, U-87 MG, read-out: IC50 U87.
In the next series the test system is Cem/hEnt-1. As to the kind of experiment: Cytostatic assay, CEM cells containing the hEnt1 transporter. In kind it is cell-based.
Text: as §2

The mark [3] stands for this setting: Table 3, read-out: IC50 L1210/TK−.
The mark [4] stands for this setting: Table 6, read-out: IC50 L1210/TK^−.
Setting [5] is: Homo sapiens, CCRF-CEM, read-out: IC50 Cem/hEnt-1.

Entries after “also recorded” stand apart in the source; their conditions may differ. Like-named read-outs stand apart in the source and are kept apart here.

Chain of Thymidine Phosphorylase purified from Escherichia coli (P07650 whole entry): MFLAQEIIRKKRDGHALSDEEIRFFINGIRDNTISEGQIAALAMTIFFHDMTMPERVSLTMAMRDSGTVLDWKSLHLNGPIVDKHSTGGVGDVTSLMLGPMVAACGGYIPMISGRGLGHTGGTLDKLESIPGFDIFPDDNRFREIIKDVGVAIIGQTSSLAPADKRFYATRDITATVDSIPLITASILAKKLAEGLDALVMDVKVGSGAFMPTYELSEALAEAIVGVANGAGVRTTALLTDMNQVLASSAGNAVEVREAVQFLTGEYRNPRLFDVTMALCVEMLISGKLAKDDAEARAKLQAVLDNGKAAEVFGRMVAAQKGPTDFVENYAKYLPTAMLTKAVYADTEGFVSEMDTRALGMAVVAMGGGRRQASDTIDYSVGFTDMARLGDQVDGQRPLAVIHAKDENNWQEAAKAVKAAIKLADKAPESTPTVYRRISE
Chain of thymidylate synthase (TS) (P07607 whole entry): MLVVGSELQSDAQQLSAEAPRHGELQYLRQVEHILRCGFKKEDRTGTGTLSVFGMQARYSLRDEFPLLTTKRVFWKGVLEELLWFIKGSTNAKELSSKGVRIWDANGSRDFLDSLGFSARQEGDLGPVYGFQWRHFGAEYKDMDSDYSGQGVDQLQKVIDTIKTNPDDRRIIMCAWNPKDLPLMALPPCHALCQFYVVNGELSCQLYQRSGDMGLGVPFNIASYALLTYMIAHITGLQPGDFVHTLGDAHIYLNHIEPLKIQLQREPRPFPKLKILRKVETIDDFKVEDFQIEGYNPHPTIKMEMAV
Chain of E. coli TP (P07650 whole entry): as the sequence (P07650 whole entry) above
Protocol for U87: All cells were maintained in Dulbecco's modified Eagle's medium (DMEM) (Invitrogen, Carlsbad, Calif.) with 10% foetal bovine serum (FBS) (Biochrom AG, Berlin, Germany), 10 mM Hepes and 1 mM Sodium Pyruvate (Invitrogen). Cells were grown at 37° C. in a humidified incubator with a gas phase of 5% CO2.
After 24 hours, an equal volume of fresh medium containing the test compounds was added. On day 5, cells were trypsinized and counted in a Coulter counter (Analis, Suarlée, Belgium). […] The cells were allowed to proliferate for 48 h (L1210) or 72 hours (CEM) and were then counted in a Coulter counter.

For the compound `O=c1[nH]c(=O)n([C@H]2C[C@H](O)[C@@H](CO)O2)cc1F` [5-FdUrd, 5-fluoro-2′-deoxyuridine, reference compound], the CC50 in the series with L1210/TK^− (L1210, Table 1, read-out: CC50 L1210/TK^−) is 3100 ± 200 nM; in the series with HeLa, 29 ± 7 nM; in the series with L1210.Hyor it was 278 nM; in the series on FM3A/0, 6.5 ± 5.5 nM; in the series with FM3A/TK^−, 700 ± 20 nM; in the series with Cem/0, 28 ± 2 nM. Further, the IC50 in the series on L1210/TK^− (setting [3]) is 3100 nM; in the series on L1210/TK^− (setting [4]), 3000 ± 100 nM; in the series with HeLa, 50 ± 11 nM; in the series with L1210.Hyor (L1210, read-out: IC50 L1210.Hyor, Table 3), 240 nM; in series [1], 1420 ± 90 nM; with Cem/hEnt-0, 2500 ± 650 nM. The IC50 in the series with Cem/0 (Table 3, read-out: IC50 CEM/0) is 28 nM; in the series on Cem/0 (Table 6, read-out: IC50 Cem/0) it was 22 ± 6 nM; in the series on U87 (Table 3), 7 ± 1 nM; in the series with Cem/hEnt-1 (setting [5]), 40 ± 20 nM. In the series with L1210.Hyor, the “% Retention” value is reported as 0.2%. In the series with L1210.Hyor (versus L1210/0), the “loss of cytostatic activity against L1210.Hyor cells” value came out at 300 fold. Also, the “Phosphorolysis by E. coli TP” value at E. coli TP was “rapidly converted”. For the same compound, the “Conversion of substrate into the base 5-FU” value in [2] (potassium phosphate buffer increased to 205 nM) was “fully converted”. Also, the “Conversion of nucleoside into the free base 5FU” value in [2] (potassium phosphate buffer, pH 7.4, TP 20.7 UNI, 25° C.) was found to be 66%.
Take `C[C@H](NP(=O)(OC[C@H]1O[C@@H](n2cc(F)c(=O)[nH]c2=O)CC1O)Oc1cccc2ccccc12)C(=O)OCc1ccccc1` (stereo partly drawn) [CPF 373, 5-Fluoro-2′deoxyuridine-5′-O-[1-naphthyl (benzoxy-L-alaninyl)] phosphate]: the IC50 with L1210/TK^− (setting [3]) was 27 nM; in the series with L1210/TK^− (setting [4]) it was 45 ± 27 nM; in the series with HeLa, 65 ± 13 nM; in the series with L1210.Hyor (L1210, read-out: IC50 L1210.Hyor) it was 25 nM; in [1] it was 53 nM; with Cem/hEnt-0, 600 ± 110 nM. For the same compound, the IC50 came out at 89 nM with Cem/0 (Table 3, read-out: IC50 CEM/0); 68 ± 35 nM with Cem/0 (Table 6, read-out: IC50 Cem/0); 35 nM with U87; 50 ± 20 nM with Cem/hEnt-1 (setting [5]); 260 nM in the series on Cem/hEnt-1 (read-out: IC50 Cem/hEnt-1 + NBMPR, in the presence of NBMPR); 130 nM in the series with Cem/hEnt-1 (read-out: IC50 Cem/hEnt-1 + dipyridamole, in the presence of dipyridamole). For the same compound, the CC50 with HeLa turned out to be 65 ± 13 nM; in the series with L1210.Hyor, 25 nM; with FM3A/0, 59 ± 46 nM; in the series with FM3A/TK^−, 740 ± 180 nM; in the series with Cem/0, 89 ± 43 nM. In the series on L1210.Hyor, the “% Retention” value is listed as 44%. In addition, the “IC50(L1210.Hyor)/IC50(L1210/0)” value in the series with L1210.Hyor (Table 7) turned out to be 2.27. Moreover, the “Phosphorolysis by E. coli TP” value at E. coli TP is given as “fully stable”. Moreover, the “Stability in the presence of TP (19F NMR)” value in [2] (with and without TP, repeated after days) is on record as “completely stable; also recorded: evident stability against TP enzymatic activity”.
